Experiments:
PCSK9 [1] = target: T1, PCSK9 (Homo sapiens, UniProt Q8NBP7); experiment: Fluorescence polarization competition binding assay (probe: compound of Example 57); settings: 2 μM PCSK9, 50 nM compound of Example 57 as probe, overnight incubation; read-out: FP IC
Summary of the method: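 Competition fluorescence-polarization binding: 2 μM PCSK9 with 50 nM fluorescent probe in 20 mM HEPES pH 7.5, 150 mM NaCl, 1 mM CaCl2, 0.005% P-20, incubated with test compound overnight in the dark. Anisotropy read; % inhibition relative to DMSO wells and probe-without-PCSK9 wells.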

PCSK9 [2] = target: T1, PCSK9; experiment: Differential scanning calorimetry (DSC) assay, direct binding / thermal stabilization of PCSK9; settings: Tm(with compound)−Tm(no compound); 2 μM PCSK9, 300 μM test compound
Summary of the method: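 Thermal stabilization of 2 μM PCSK9 with or without 300 μM compound in 25 mM HEPES pH 7.5, 150 mM NaCl, 1 mM CaCl2, 3.75% DMSO. Sample heated 20–80 °C at 200 °C/hr against buffer reference. Protein Tm derived from each thermogram.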

T1 sequence (Q8NBP7 153-692): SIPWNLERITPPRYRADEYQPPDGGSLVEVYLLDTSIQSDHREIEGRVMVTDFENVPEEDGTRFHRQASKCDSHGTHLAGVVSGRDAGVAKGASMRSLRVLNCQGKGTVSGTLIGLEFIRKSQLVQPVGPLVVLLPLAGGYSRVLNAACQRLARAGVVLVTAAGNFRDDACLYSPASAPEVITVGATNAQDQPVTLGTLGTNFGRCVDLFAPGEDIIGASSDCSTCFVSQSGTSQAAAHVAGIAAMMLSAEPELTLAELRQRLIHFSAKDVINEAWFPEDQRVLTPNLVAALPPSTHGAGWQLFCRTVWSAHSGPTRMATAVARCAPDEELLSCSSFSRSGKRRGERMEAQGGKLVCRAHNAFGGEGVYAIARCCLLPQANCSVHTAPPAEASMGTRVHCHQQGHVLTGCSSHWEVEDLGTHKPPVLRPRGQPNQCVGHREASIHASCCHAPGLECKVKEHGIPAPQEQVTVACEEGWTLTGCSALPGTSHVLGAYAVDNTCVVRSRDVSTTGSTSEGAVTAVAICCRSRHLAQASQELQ

IC50 (PCSK9 [1]) [nM] | ΔTm at 300 µM (PCSK9 [2]) [°C] | DSC ΔTm (PCSK9 [2]) [°C] | SMILES
1.6 | 5.51 |  | C[C@]1(CC(=O)Nc2cccnn2)NCCc2cc(OCC3CCCCO3)c(Oc3ccc(Br)c(F)c3)cc21 (stereo partly drawn) [Example 88, 2-((1R)-7-(4-bromo-3-fluorophenoxy)-1-methyl-6-((tetrahydro-2H-pyran-2-yl)methoxy)-1,2,3,4-tetrahydroisoquinolin-1-yl)-N-(pyridazin-3-yl)acetamide]
602 | 6.48 |  | CC(=O)NCc1cn(CCOc2cc3c(cc2Oc2ccc(C(=O)O)c(F)c2)[C@@](C)(CC(=O)Nc2nccs2)NCC3)nn1 [Example 46]
170 | 9.62 |  | COc1cccc(NC(=O)C[C@@]2(C)NCCc3cc(OCC4CCCCO4)c(Oc4ccc(-c5ccc(C(=O)O)cc5)c(F)c4)cc32)c1 (stereo partly shown) [Example 85]
790 | 7.08 |  | C[C@]1(CC(=O)Nc2nccs2)NCCc2cc(OCC3CCCCO3)c(Oc3ccc(C(=O)Nc4n[nH]c5ncccc45)c(F)c3)cc21 (stereo partly drawn) [Example 74, 2-fluoro-4-(((1R)-1-methyl-1-(2-oxo-2-(thiazol-2-ylamino)ethyl)-6-((tetrahydro-2H-pyran-2-yl)methoxy)-1,2,3,4-tetrahydroisoquinolin-7-yl)oxy)-N-(1H-pyrazolo[3,4-b]pyridin-3-yl)benzamide]
292 | 5.98 |  | Cc1nnc(-c2cn(CCOc3cc4c(cc3Oc3ccc(C(=O)O)c(F)c3)[C@@](C)(CC(=O)Nc3nccs3)NCC4)nn2)o1 [Example 39, (R)-2-fluoro-4-((1-methyl-6-(2-(4-(5-methyl-1,3,4-oxadiazol-2-yl)-1H-1,2,3-triazol-1-yl)ethoxy)-1-(2-oxo-2-(thiazol-2-ylamino)ethyl)-1,2,3,4-tetrahydroisoquinolin-7-yl)oxy)benzoic acid]
1.17 | 6.18 |  | COc1cccc(NC(=O)C[C@@]2(C)NCCc3cc(OCC4CCCCO4)c(Oc4ccc(Br)c(F)c4)cc32)c1 (stereo partly drawn) [Example 86, 2-((1R)-7-(4-bromo-3-fluorophenoxy)-1-methyl-6-((tetrahydro-2H-pyran-2-yl)methoxy)-1,2,3,4-tetrahydroisoquinolin-1-yl)-N-(3-methoxyphenyl)acetamide]
0.237 | 5.89 |  | COc1cc2c(cc1Oc1ccc(-c3c[nH]c(C(=O)O)c3)c(F)c1)[C@@](C)(CC(=O)Nc1nccs1)NCC2 [Example 14, (R)-4-(2-fluoro-4-((6-methoxy-1-methyl-1-(2-oxo-2-(thiazol-2-ylamino)ethyl)-1,2,3,4-tetrahydroisoquinolin-7-yl)oxy)phenyl)-1H-pyrrole-2-carboxylic acid]
1.4 | 6.57 |  | COc1cccc(NC(=O)C[C@@]2(C)NCCc3cc(OCC4CCCCO4)c(Oc4ccc(Br)c(F)c4)cc32)n1 (stereo partly drawn) [Example 87, 2-((1R)-7-(4-bromo-3-fluorophenoxy)-1-methyl-6-((tetrahydro-2H-pyran-2-yl)methoxy)-1,2,3,4-tetrahydroisoquinolin-1-yl)-N-(6-methoxypyridin-2-yl)acetamide]
560 | 5.2 |  | COc1cc2c(cc1Oc1ccc(-c3ccc(C(=O)O)cc3F)nc1)[C@@](C)(CC(=O)Nc1nccs1)NCC2 [Example 33, (R)-3-fluoro-4-(5-((6-methoxy-1-methyl-1-(2-oxo-2-(thiazol-2-ylamino)ethyl)-1,2,3,4-tetrahydroisoquinolin-7-yl)oxy)pyridin-2-yl)benzoic acid]
261 | 7.2 |  | Cc1noc(COc2cc3c(cc2Oc2ccc(-c4ccc(C(=O)O)cc4)c(F)c2)[C@@](C)(CC(=O)Nc2nccs2)NCC3)n1 [Example 24, (R)-2′-fluoro-4′-((1-methyl-6-((3-methyl-1,2,4-oxadiazol-5-yl)methoxy)-1-(2-oxo-2-(thiazol-2-ylamino)ethyl)-1,2,3,4-tetrahydroisoquinolin-7-yl)oxy)-[1,1′-biphenyl]-4-carboxylic acid]
410 | 6.18 |  | C[C@]1(CC(=O)Nc2nccs2)NCCc2cc(OCC3CCCCO3)c(Oc3ccc(C(=O)Nc4n[nH]c5ncccc45)c(F)c3)cc21 (single isomer, unassigned) [Example 75, 2-fluoro-4-(((R)-1-methyl-1-(2-oxo-2-(thiazol-2-ylamino)ethyl)-6-(((R or S)-tetrahydro-2H-pyran-2-yl)methoxy)-1,2,3,4-tetrahydroisoquinolin-7-yl)oxy)-N-(1H-pyrazolo[3,4-b]pyridin-3-yl)benzamide]
550 |  | 6.585 | C[C@]1(CC(=O)Nc2nccs2)NCCc2cc(OCC3CCCCO3)c(Oc3cccc(F)c3)cc21 (single isomer, unassigned) [Example 81, 2-((1R)-7-(3-fluorophenoxy)-1-methyl-6-(((S or R)-tetrahydro-2H-pyran-2-yl)methoxy)-1,2,3,4-tetrahydroisoquinolin-1-yl)-N-(thiazol-2-yl)acetamide]
228 | 8.71 |  | C[C@]1(CC(=O)Nc2nccs2)NCCc2cc(OCC3CCCCO3)c(Oc3ccc(-c4ccc(C(=O)O)cc4)c(F)c3)cc21 (stereo partly drawn) [Example 23, 2′-fluoro-4′-(((1R)-1-methyl-1-(2-oxo-2-(thiazol-2-ylamino)ethyl)-6-((tetrahydro-2H-pyran-2-yl)methoxy)-1,2,3,4-tetrahydroisoquinolin-7-yl)oxy)-[1,1′-biphenyl]-4-carboxylic acid]
943 | 6.32 |  | C[C@]1(CC(=O)Nc2nccs2)NCCc2cc(OCc3ncccc3F)c(Oc3cccc(F)c3)cc21 [Example 84, (R)-2-(7-(3-fluorophenoxy)-6-((3-fluoropyridin-2-yl)methoxy)-1-methyl-1,2,3,4-tetrahydroisoquinolin-1-yl)-N-(thiazol-2-yl)acetamide]
4.15 | 3.57 |  | COC(=O)CCc1ccc(-c2ccc(Oc3cc4c(cc3OC)CCN[C@]4(C)CC(=O)Nc3nccs3)cn2)cc1 [Example 16, methyl (R)-3-(4-(5-((6-methoxy-1-methyl-1-(2-oxo-2-(thiazol-2-ylamino)ethyl)-1,2,3,4-tetrahydroisoquinolin-7-yl)oxy)pyridin-2-yl)phenyl)propanoate]
767 | 5.56 |  | COc1cc2c(cc1Oc1ccc(-c3ccc(CC(=O)O)cc3)cc1)[C@@](C)(CC(=O)Nc1nccs1)NCC2 [Example 36, (R)-2-(4′-((6-methoxy-1-methyl-1-(2-oxo-2-(thiazol-2-ylamino)ethyl)-1,2,3,4-tetrahydroisoquinolin-7-yl)oxy)-[1,1′-biphenyl]-4-yl)acetic acid]
756 | 5.69 |  | COc1cccc(NC(=O)C[C@@]2(C)NCCc3cc(OC)c(Oc4cccc(F)c4)cc32)c1 [Example 11, (R)-2-(7-(3-fluorophenoxy)-6-methoxy-1-methyl-1,2,3,4-tetrahydroisoquinolin-1-yl)-N-(3-methoxyphenyl)acetamide]
823 | 6.96 |  | C[C@]1(CC(=O)Nc2nccs2)NCCc2cc(OCCn3cc(C(O)C(N)C(=O)O)nn3)c(Oc3ccc(C(=O)O)c(F)c3)cc21 (stereo partly drawn) [Example 53, 4-(((1R)-6-(2-(4-(2-amino-2-carboxy-1-hydroxyethyl)-1H-1,2,3-triazol-1-yl)ethoxy)-1-methyl-1-(2-oxo-2-(thiazol-2-ylamino)ethyl)-1,2,3,4-tetrahydroisoquinolin-7-yl)oxy)-2-fluorobenzoic acid]
354 | 7.18 |  | COCCOCc1cn(CCOc2cc3c(cc2Oc2ccc(C(=O)O)c(F)c2)[C@@](C)(CC(=O)Nc2nccs2)NCC3)nn1 [Example 41, (R)-2-fluoro-4-((6-(2-(4-((2-methoxyethoxy)methyl)-1H-1,2,3-triazol-1-yl)ethoxy)-1-methyl-1-(2-oxo-2-(thiazol-2-ylamino)ethyl)-1,2,3,4-tetrahydroisoquinolin-7-yl)oxy)benzoic acid]
302 | 6.75 |  | Cc1cn(-c2ccc(-c3cn(CCOc4cc5c(cc4Oc4ccc(C(=O)O)c(F)c4)[C@@](C)(CC(=O)Nc4nccs4)NCC5)nn3)cc2C)cn1 [Example 40, (R)-2-fluoro-4-((1-methyl-6-(2-(4-(3-methyl-4-(4-methyl-1H-imidazol-1-yl)phenyl)-1H-1,2,3-triazol-1-yl)ethoxy)-1-(2-oxo-2-(thiazol-2-ylamino)ethyl)-1,2,3,4-tetrahydroisoquinolin-7-yl)oxy)benzoic acid]
823 | 6.76 |  | C[C@]1(CC(=O)Nc2nccs2)NCCc2cc(OCC3CCCCO3)c(Oc3cccc(F)c3)cc21 (stereo partly drawn) [Example 79, 2-((1R)-7-(3-fluorophenoxy)-1-methyl-6-((tetrahydro-2H-pyran-2-yl)methoxy)-1,2,3,4-tetrahydroisoquinolin-1-yl)-N-(thiazol-2-yl)acetamide]
267 | 7 |  | CC1(c2cn(CCOc3cc4c(cc3Oc3ccc(C(=O)O)c(F)c3)[C@@](C)(CC(=O)Nc3nccs3)NCC4)nn2)CCOC1 (stereo partly drawn) [Example 38, 2-fluoro-4-(((1R)-1-methyl-6-(2-(4-(3-methyltetrahydrofuran-3-yl)-1H-1,2,3-triazol-1-yl)ethoxy)-1-(2-oxo-2-(thiazol-2-ylamino)ethyl)-1,2,3,4-tetrahydroisoquinolin-7-yl)oxy)benzoic acid]
530 | 6.96 |  | Cc1ccc(-c2cn(CCOc3cc4c(cc3Oc3ccc(C(=O)O)c(F)c3)[C@@](C)(CC(=O)Nc3nccs3)NCC4)nn2)cn1 [Example 45, (R)-2-fluoro-4-((1-methyl-6-(2-(4-(6-methylpyridin-3-yl)-1H-1,2,3-triazol-1-yl)ethoxy)-1-(2-oxo-2-(thiazol-2-ylamino)ethyl)-1,2,3,4-tetrahydroisoquinolin-7-yl)oxy)benzoic acid]

— patent publication US11008313B2, “Substituted 1-methyl-1,2,3,4-tetrahydroisoquinoline molecules as PCSK9 allosteric binders” (Merck Sharp & Dohme Corp., priority 2016, dated 2021)
